Test: solvent given as SMILES

CC1(C)CC[N+]2=c3c(cc4c(c31)Oc1cc3c(cc1C=4c1ccccc1C(=O)O)C(c1ccccc1C(=O)O)=c1cc4c5c(c1O3)C(C)(C)CC[N+]=5CCC4)CCC2
emission maximum (in ClC(Cl)Cl): 635 nm

c1cc2ccc1CCCc1ccc(c3nsnc13)CCC2
emission maximum (in C1CCCCC1): 468 nm
emission maximum (in CC#N): 497 nm
emission maximum (in ClC(Cl)Cl): 496 nm

C(S/C=C/c1ccc(-c2ccc(/C=C/SC=C3CCCCCC3)cc2)cc1)=C1CCCCCC1
emission maximum (in ClCCl): 434 nm

Cc1ccc(-c2ccc(/C=C/c3cccn3C)cn2)nc1
emission maximum (in C1COCCO1): 464 nm
emission maximum (in CC#N): 488 nm
emission maximum (in CCCCCC): 436 nm
emission maximum (in CCO): 501 nm
emission maximum (in CN(C)C=O): 493 nm
emission maximum (in CO): 507 nm
emission maximum (in CS(C)=O): 500 nm
emission maximum (in Cc1ccccc1): 459 nm
emission maximum (in ClC(Cl)Cl): 476 nm
emission maximum (in c1ccccc1): 464 nm

c1ccc(-c2nc(-c3nc(-c4ccccc4)c(-c4ccccc4)o3)oc2-c2ccccc2)cc1
emission maximum (in C1COCCO1): 411 nm

Cc1ccc(-c2ccc(/C=C/c3ccccc3)cn2)nc1
emission maximum (in CC#N): 392 nm

O=c1cc(-c2ccccc2)oc(-c2nc3ccccn3c2NC2CCCCC2)c1
emission maximum (in ClCCl): 475 nm

COc1ccc(/C=C/C=C/C=C/c2ccc([N+](=O)[O-])cc2)cc1
emission maximum (in C1CCOC1): 611 nm
emission maximum (in C1COCCO1): 565 nm
emission maximum (in CC1CCCCC1): 485 nm
emission maximum (in CC#N): 740 nm
emission maximum (in CO): 690 nm
emission maximum (in CS(C)=O): 744 nm
emission maximum (in Cc1ccccc1): 541 nm
emission maximum (in ClC(Cl)Cl): 681 nm
emission maximum (in ClCCl): 694 nm

CCOC(=O)c1ccccc1-c1c2ccc(=[N+](CC)CC)cc-2oc2c1c(=O)oc1cc(N(CC)CC)ccc12
emission maximum (in CCO): 642 nm
emission maximum (in ClC(Cl)Cl): 640 nm
emission maximum (in O): 652 nm

Cc1cc(C)c(C2=C3C=CC=[N+]3[B-]3(c4cccc5ccccc45)Oc4cc(O)cc5c6ccc(C)cc6c6cc2n3c6c45)c(C)c1 (stereo unspecified)
emission maximum (in ClC(Cl)Cl): 669 nm

COC(=O)/C=C/C1=CC2=C(c3c(C)cc(C)cc3C)c3cccn3[B-](F)(F)[N+]2=C1
emission maximum (in ClCCl): 570 nm

N#Cc1ccc(-c2ccc3c(c2)c2cc(-c4ccc(C#N)cc4)ccc2c2c3nc(-c3ccc(N(c4ccccc4)c4ccccc4)cc3)n2-c2ccccc2)cc1
emission maximum (in C1CCOC1): 449.94 nm
emission maximum (in CC#N): 479.9 nm
emission maximum (in CCCCCC): 419.62 nm
emission maximum (in CCOCC): 439.6 nm

CCN(CC)c1ccc2c(c1)oc(=O)c1c(-c3ccccc3C(=O)O)c3ccc(=[N+](CC)CC)cc-3oc12
emission maximum (in CCO): 637 nm
emission maximum (in ClC(Cl)Cl): 636 nm
emission maximum (in O): 646 nm

Nc1cccc2c1-c1ccccc1C2=O
emission maximum (in C1CCCCC1): 513 nm
emission maximum (in CC#N): 604 nm
emission maximum (in CCO): 667 nm
emission maximum (in c1ccccc1): 544 nm

COc1ccc(-c2nc(-c3ccc(OC)cc3)n3ccccc23)cc1
emission maximum (in ClC(Cl)Cl): 479 nm

CN1CCc2cc(C3=Cc4cccc[n+]4[B-](F)(F)O3)ccc21
emission maximum (in ClC(Cl)Cl): 515 nm

Cn1nc(-c2ccc(C(F)(F)F)cc2)cc1-c1ccccc1
emission maximum (in ClCCl): 341 nm

CCOC(=O)c1c(-c2cc3ccc(OCC=C(C)C)cc3oc2=O)nn(-c2cccc(C)c2)c1C(=O)OCC
emission maximum (in ClCCl): 425 nm

COC1=[N+]2C(=C(c3ccccc3)c3ccc(OC)n3[B-]2(F)F)C=C1SC#N
emission maximum (in CC#N): 539 nm
emission maximum (in CCCCCC): 542 nm
emission maximum (in CCOC(C)=O): 543 nm
emission maximum (in CO): 540 nm
emission maximum (in ClCCl): 543 nm

Oc1ccccc1/C=N/c1cc2nc3ccccc3nc2cc1/N=C/c1ccccc1O
emission maximum (in CC#N): 501 nm

CC[n+]1c(-c2ccccc2)c2cc(NC(=O)N[C@H]3C[C@@H]([NH3+])[C@H](O)[C@@H](O)[C@@H]3O)ccc2c2ccc(NC(=O)N[C@@H]3C[C@H]([NH3+])[C@@H](O)[C@@H](O)[C@H]3O)cc21
emission maximum (in O): 522 nm

CC1=C(C#Cc2ccc([Si](c3ccccc3)(c3ccccc3)c3ccccc3)cc2)C(C)=[N+]2C1=C(c1ccccc1)c1c(C)c(C#Cc3ccc([Si](c4ccccc4)(c4ccccc4)c4ccccc4)cc3)c(C)n1[B-]2(F)F
emission maximum (in ClCCl): 600 nm

CCOC(=O)c1ccc(C2=Cc3cc4ccccc4cc3P2(=O)c2ccccc2)cc1 (stereo unspecified)
emission maximum (in ClCCl): 432 nm

O=c1oc2ccccc2cc1-c1ccc([N+](=O)[O-])cc1
emission maximum (in C1CCOC1): 421 nm
emission maximum (in CC#N): 409 nm
emission maximum (in CS(C)=O): 425 nm
emission maximum (in ClC(Cl)Cl): 400 nm

CC1=c2ccccc2=[N+]2C1=Cc1c3ccccc3c(-c3[nH]c4ccccc4c3C)n1[B-]2(F)F
emission maximum (in ClCCl): 648 nm

CC1=[N+]2C(=C(c3ccc(C(=C(c4ccccc4)c4ccccc4)c4ccccc4)cc3)c3ccc(C)n3[B-]2(F)F)C=C1
emission maximum (in C1CCOC1): 530 nm

CCN(CC)c1c2ccc(=[N+]3CCCCC3)cc-2oc2cc(N3CCCCC3)ccc12
emission maximum (in ClCCl): 558 nm

FC(F)(F)c1ccc(/C=C/c2nc3c(ccc4ccccc43)s2)cc1
emission maximum (in C1CCCCC1): 432 nm
emission maximum (in CC#N): 445 nm

Nc1ncc2nc[nH]c2n1
emission maximum (in O): 380 nm

CCOC(=O)/C(C)=C/C1=C(c2ccc(C)cc2)C2=Nc3c(-c4ccc(C)cc4)c(Br)c(-c4ccc(C)cc4)n3[B-](F)(F)[N+]2=C1c1ccc(C)cc1
emission maximum (in ClC(Cl)Cl): 702 nm

CCCCCCOc1ccc(C#Cc2ccc(C#Cc3ccc(OCCCCCC)c(OCCCCCC)c3)c3nsnc23)cc1OCCCCCC
emission maximum (in C1CCCCC1): 504 nm
emission maximum (in CCOC(C)=O): 550 nm
emission maximum (in CN(C)C=O): 600 nm
emission maximum (in COc1ccccc1): 561 nm
emission maximum (in Cc1ccccc1): 537 nm
emission maximum (in ClC(Cl)Cl): 580 nm
emission maximum (in ClCCCl): 581 nm
emission maximum (in ClCCl): 577 nm

COc1ccc2c3c(c4ccc(OC)cc4c2c1)C(C)(C)c1cc(-c2ccccc2)ccc1-3
emission maximum (in C1CCCCC1): 392 nm

CCC1=C(C)C(=O)n2c1cc1c(C)c(CC)c(C)n1c2=O
emission maximum (in CO): 540 nm
emission maximum (in CS(C)=O): 510 nm
emission maximum (in ClC(Cl)Cl): 500 nm
emission maximum (in c1ccccc1): 500 nm

F[B-]1(F)n2c(cc3c2-c2ccccc2CC3)C(c2ccc(I)cc2)=C2C=C3CCc4ccccc4C3=[N+]21
emission maximum (in ClC(Cl)Cl): 647 nm

CCCCCCCCCCCCCCn1c(-c2cc(-c3nc4ccc(C)cc4n3CCCCCCCCCCCCCC)cc(-c3nc4ccc(C)cc4n3CCCCCCCCCCCCCC)c2)nc2ccc(C)cc21
emission maximum (in C1CCOC1): 368.6 nm

CNc1cccc2c1C(=O)c1ccccc1C2=O
emission maximum (in C1CCC2CCCCC2C1): 565 nm
emission maximum (in C1CCCCC1): 563 nm
emission maximum (in CC1CCCCC1): 565 nm
emission maximum (in CC#N): 617 nm
emission maximum (in CCC(C)CC): 562 nm
emission maximum (in CCCCCC): 560 nm
emission maximum (in CCOC(C)=O): 600 nm

CCCCCCCCCCCCN1C(=O)c2c(c3ccc4cc(-c5cccs5)c(OC)cc4c3c3c2ccc2cc(-c4cccs4)c(OC)cc23)C1=O
emission maximum (in ClCCl): 545 nm

Cc1ccc(C)c2nc3c(=O)[nH]c(=O)[nH]c3nc12
emission maximum (in CC#N): 491 nm

COc1ccc(-c2cc(N3CCCCC3)c(C#N)c3c2-c2cccc4cccc-3c24)cc1
emission maximum (in O): 552 nm

CC(C)(C)c1ccc2c(c1)c1cc(C(C)(C)C)ccc1n2-c1ccc(S(=O)(=O)c2ccc(S(=O)(=O)c3ccc(-n4c5ccc(C(C)(C)C)cc5c5cc(C(C)(C)C)ccc54)cc3)cc2)cc1
emission maximum (in Cc1ccccc1): 446 nm

C1=C(c2ccccc2)C=C(c2ccccc2)/C1=C/c1ccc2ccc3cccc4ccc1c2c34
emission maximum (in C1CCOC1): 480 nm

COc1ccc(-c2c3ccccc3c(-c3ccc(OC)cc3)c3cc4ccccc4cc23)cc1
emission maximum (in ClCCl): 511 nm

Clc1ccc(-c2nc(-c3ccccc3)sc2N(c2ccccc2)c2ccccc2)cc1
emission maximum (in ClC(Cl)Cl): 463 nm

— the Deep4Chem optical property database
